{"source": "patent US5874464A", "about": "“Conformationally constrained diacylglycerol analogues” (The United States of America as represented by the …, priority 1995, dated 1999)", "key": {"[1]": {"biological_target": "T1, PK-C α (Homo sapiens, UniProt P17252)", "T1 construct": "made in house", "test": "displacement of bound [3H-20]-phorbol-12,13-dibutyrate (PDBU) from single recombinant isozyme PK-C α", "format": "binding", "conditions": "for Ki: PK-C α", "protocol": "This recombinant PK-C α was expressed in baculovirus and isolated as described by Kazanietz et al. (Mol. Pharmacol. 44: 298-307 (1993)).\nThe affinity of these ligands for PK-C was assessed in terms of their ability to displace bound [^3 H-20]-phorbol-12,13-dibutyrate (PDBU) from a purified product containing the single isozyme PK-C α."}, "[2]": {"tested_on": "mouse skin tumor promotion", "conditions": "in vivo; cited from earlier work"}, "[3]": {"test": "stability to racemization / acyl migration", "format": "physicochemical", "conditions": "silica or neutral alumina"}, "[4]": {"tested_on": "binding of epidermal growth factor", "test": "inhibition of binding of epidermal growth factor in intact cells", "format": "cell-based", "conditions": "read-out: ED50, inhibition of binding of epidermal growth factor", "protocol": "(§1) The biological activity of compound 3.8 was evaluated further. […] Finally, the ability of compound 3.8 to down-regulate PK-C α and PK-C δ in primary mouse keratinocytes after 24 hours was examined."}, "[5]": {"biological_target": "T1, PK-C α", "test": "stimulation of phosphorylation of the α-pseudosubstrate peptide (activation of PK-C α)", "format": "biochemical", "conditions": "read-out: ED50, stimulation of phosphorylation of the α-pseudosubstrate peptide"}, "[6]": {"tested_on": "PK-C.eta.", "test": "down-regulation of PK-C.eta. in primary mouse keratinocytes", "format": "cell-based", "conditions": "after 24 hours"}, "[7]": {"biological_target": "T2, PK-C α (Mus musculus, UniProt P20444)", "T2 construct": "in primary mouse keratinocytes; endogenous in cells; host or cells: primary mouse keratinocytes", "test": "down-regulation of PK-C α in primary mouse keratinocytes", "format": "cell-based", "conditions": "even after 24 h", "protocol": "as §1"}, "[8]": {"tested_on": "PK-Cε", "test": "down-regulation of PK-Cε in primary mouse keratinocytes", "format": "cell-based", "conditions": "after 24 hours"}, "[9]": {"tested_on": "CD-1 mouse skin", "test": "induction of acute edema or hyperplasia in CD-1 mouse skin", "format": "in vivo", "conditions": "10-100 μg"}, "[10]": {"tested_on": "melanoma", "conditions": "in vivo; cited from earlier work"}, "[11]": {"conditions": "Table II, racemic and chiral compounds, read-out: Apparent Ki for ligands as inhibitors of PDBU binding to PK-C"}, "[12]": {"conditions": "read-out: Ki, displacement of bound PDBU"}, "[13]": {"conditions": "Table I, read-out: Apparent Ki for ligands as inhibitors of PDBU binding to PK-C"}, "[14]": {"conditions": "Table IV, read-out: Apparent Ki for chiral ligands having an α-alkylidene chain as inhibitors of PDBU binding to PK-C"}}, "note": "Where two headings read alike, the source gives them in different places.", "data": [{"smiles": "CCCCCCCCCCCCCC(=O)OCC1(CO)CCC(=O)O1", "note": "(stereo not shown)", "values": [{"measurement": "Ki", "setting": "[1]; [11]", "result": "0.138 ± 0.024", "unit": "µM"}]}, {"smiles": "CCCCCCCCCCCCCC(=O)OCC1(CO)CCC(=O)O1", "note": "(racemic) [Compound 3e, 5-[(tetradecanoyloxy)methyl]-5-hydroxymethyl-tetrahydro-2-furanone]", "values": [{"measurement": "Ki", "setting": "[1]; [12]", "result": 0.138, "unit": "µM"}]}, {"smiles": "CC(=O)OC12CC(C)C3(O)C(C=C(CO)CC4(O)C(=O)C(C)=CC43)C1C2(C)C", "note": "(stereo not shown) [12-deoxyphorbol-13-acetate]", "values": [{"measurement": "inhibition of mouse skin tumor promotion", "setting": "[2]", "result": 97, "unit": "%"}]}, {"smiles": "CCCCCCCCCCCCCC(=O)OC[C@]1(CO)CCC(=O)O1", "note": "[Compound 2.2, (R)-5-[(tetradecanoyloxy)methyl]-5-(hydroxymethyl)-tetrahydro-2-furanone]", "values": [{"measurement": "Ki", "setting": "[1]; [12]", "result": 0.096, "unit": "µM"}, {"measurement": "racemization on exposure to chromatographic conditions", "setting": "[3]", "result": "rapid racemization"}]}, {"smiles": "CCCCCCCC/C=C\\CCCCCCC/C=C1\\C[C@](/C=C/C(=O)OC)(CO)OC1=O", "note": "[Compound 3.7, (S)-5-Hydroxymethyl-5-[2-(methoxycarbonyl)ethenyl]-3-{(E)-[(Z)-9-octadecenoylidene]}tetrahydro-2-furanone]", "values": [{"measurement": "binding affinity compared with the corresponding α-alkylidenes 3.9 and 3.10", "setting": "[1]; Table IV", "result": "equivalent"}]}, {"smiles": "CCCCCCCC/C=C\\CCCCCCC/C=C1/C[C@](/C=C/C(=O)OC)(CO)OC1=O", "note": "[Compound 3.8, (S)-5-Hydroxymethyl-5-[2-(methoxycarbonyl)ethenyl]-3-{(Z)-[(Z)-9-octadecenoylidene]}tetrahydro-2-furanone]", "values": [{"measurement": "IC50", "setting": "[4]", "result": 1, "unit": "µM"}, {"measurement": "binding affinity compared with the corresponding α-alkylidenes 3.9 and 3.10", "setting": "[1]; Table IV", "result": "equivalent"}, {"measurement": "EC50", "setting": "[5]", "result": "0.163 ± 0.0167", "unit": "µM"}, {"measurement": "down-regulation of PK-C.eta.", "setting": "[6]", "result": "did not down-regulate"}, {"measurement": "loss in activity", "setting": "[7]", "result": "No loss in activity was observed"}, {"measurement": "down-regulation of PK-Cε", "setting": "[8]", "result": "did not down-regulate"}, {"measurement": "induction of acute edema", "setting": "[9]; 6 h", "result": "did not induce acute edema"}, {"measurement": "induction of hyperplasia", "setting": "[9]; 72 h", "result": "did not induce acute edema (10-100 μg, 6 h) or hyperplasia"}]}, {"smiles": "CCCCCCCC/C=C\\CCCCCCCC(=O)OCC1(CO)CCC(=O)O1", "note": "(stereo not shown) [Compound 3f, 5-{[(Z)-9-octadecenoyloxy]methyl}-5-hydroxymethyl-tetrahydro-2-furanone]", "values": [{"measurement": "Ki", "setting": "[1]; [13]", "result": "0.096 ± 0.00745", "unit": "µM"}]}, {"smiles": "CCCCCCCCCCCCCC(=O)OCC1(CO)COC(=O)C1", "note": "(stereo not shown) [Compound 9c, 4-Hydroxymethyl-4-(tetradecanoyloxy)methyl-4-vinyltetrahydro-2-furanone]", "values": [{"measurement": "Ki", "setting": "[1]; [13]", "result": 9.81, "unit": "µM"}]}, {"smiles": "CCCCCCCCCCCCCCC1CC(CO)(COC(C)=O)OC1=O", "note": "(stereo not shown) [Compound 12, 5-(acetyloxymethyl)-5-(hydroxymethyl)-3-(tetradecanyl)-tetrahydro-2-furanone]", "values": [{"measurement": "Ki", "setting": "[1]; [13]", "result": "0.075 ± 0.00254", "unit": "µM"}]}, {"smiles": "CCCCCCCCCCCCC/C=C1\\C(=O)OCC1(CO)COC(C)=O", "note": "(stereo not shown) [Compound 14c, (Z)-4-[(acetoxy)methyl]-4-hydroxymethyl-3-(tetradecanylidene)-tetrahydro-2-furanone]", "values": [{"measurement": "Ki", "setting": "[1]; [13]", "result": 6.51, "unit": "µM"}]}, {"smiles": "CCCC=CC=CC(=O)OC1C(=CC(=O)OC)CC2CC(C(C)O)OC(=O)CC(O)CC3CC(OC(C)=O)C(C)(C)C(O)(CC4CC(=CC(=O)OC)CC(C=CC(C)(C)C1(O)O2)O4)O3", "note": "(stereo not shown) [bryostatin-1]", "values": [{"measurement": "results in clinical trials for treatment of melanoma", "setting": "[10]", "result": "promising results"}]}, {"smiles": "CCCCCCCCCCCCCC(=O)OC[C@]1(CO)CCC(=O)O1", "note": "[drawing 16]", "values": [{"measurement": "Ki", "setting": "[1]; [11]", "result": "0.096 ± 0.00217", "unit": "µM"}]}, {"smiles": "CCCCCCCC/C=C\\CCCCCCC/C=C1\\C[C@](/C=C/C(=O)OC)(CO)OC1=O", "note": "[drawing 35]", "values": [{"measurement": "Ki", "setting": "[1]; [14]", "result": "0.0201 ± 0.0029", "unit": "µM"}]}, {"smiles": "CCCCCCCC/C=C\\CCCCCCC/C=C1/C[C@](/C=C/C(=O)OC)(CO)OC1=O", "note": "[drawing 36]", "values": [{"measurement": "Ki", "setting": "[1]; [14]", "result": "0.0113 ± 0.00072", "unit": "µM"}]}]}
